For 9 compounds, IC50 results are on record in US9617272B2, “Tricyclic compounds as inhibitors of immunosuppression mediated by tryptophan metabolization” (NewLink Genetics Corporation, priority 2013, dated 2017).

pIC50: −log10 of the molar value.

Assay [1] deals with purified human IDO protein (Homo sapiens (Human), UniProt P14902). Nature of the assay: Enzymatic IDO assay. It counts as biochemical. The procedure:
Expression vectors for human indoleamine-2,3-dioxygenase (IDO) protein were prepared by amplification of a 1219 bp fragment of the sequence present in vector phIDO6His cDNA with primers 5′-ggagcatgcta[…]-3′ (SEQ ID NO: 1) and 5′gagagatct[…]-3′ (SEQ ID NO: 2) and cloning the SphI-BglII 1213 bp fragment into pQE70 (Qiagen), to yield vector pQE70-hIDO. This construct adds 2 extra amino acids and a 6-Histidine tag to the C-terminus of the natural human IDO protein while preserving intact the natural start codon and N-terminus amino acid sequence.
Plasmid pQE70-hIDO was transformed into M15(pREP4) cells (Qiagen) and clones were selected in LB-agar plates supplemented with carbenicillin 50 μg/mL and kanamycin 30 μg/mL. Protein expression was carried out by growing an overnight culture of the M15pREP4/pQE70-hIDO clone in 100 mL LB supplemented with 100 μg/mL carbenicillin, 50 μg/mL kanamycin and 50 μg/mL of L-tryptophan (LBCKT medium). 40 mL of this culture were inoculated into 750 mL of LBCKT for 4 hours at 37° C. This culture was diluted 1:10 into LBCKT medium and cultured for another 2 hours at 37° C. until OD600 was higher than 0.8. At this point the cultures were inoculated with Hemin to 7 μM and L-Tryptophan to 75 μg/mL and incubated at 37° C. for 2 h. Induction of protein expression was carried out by supplementing the cultures with IPTG to 1 mM, PMSF to 200 μM, EDTA to 1 mM and L-tryptophan to 50 μg/mL. Incubation was continued for additional 16 h at 25° C. Cells were collected by centrifugation, and the cell pellets were washed with PBS buffer supplemented with 200 μM PMSF and 1 mM EDTA and stored at −80° C. until protein purification.
The equivalent of 16 L of culture were processed in one batch of purification. Cell pellets were thawed, resuspended in 50 mM potassium phosphate buffer pH 7.0, 200 μM PMSF, 1 mM EDTA, 1 mg/mL lysozyme to 10 mL per liter of bacterial culture and incubated 30 minutes on ice. Cells were then lysed by sonication. Cell lysates were centrifuged 20 min at 20000 g and the supernatant was filtered through 0.45 μm filters. The filtered supernatant was loaded onto a 60 mL phosphocellulose column equilibrated with 50 mM potassium phosphate buffer pH 6.5 (KPB) at 1-3 mL/min. The column was washed with 3 volumes of 50 mM KPB, 3 volumes of 100 mM KPB and the protein was eluted with 15 volumes of a linear gradient of 100-500 mM KPB. Fractions were collected and IDO activity assay was performed by measuring kynurenine production. This was carried out by mixing 50 μL of each fraction with 100 μL of reaction mix to yield a final concentration of 50 mM KPB buffer, 20 mM ascorbic acid, 200 μg/mL catalase, 20 μM methylene blue and 400 μM L-tryptophan. […] Collected fractions were assayed by IDO enzymatic assay described above and the positive fractions were pooled and concentrated by ultrafiltration and dialyzed against a buffer containing 250 mM KPB, 50% glycerol.
(§1) The inhibitors were initially diluted in DMSO at 100 mM and were diluted in potassium phosphate 50 mM, added to the reaction mixture at final concentrations raging from 1 mM to 5 nM and preincubated with the enzyme for 5 min at 25° C. The reaction was started by addition of L-tryptophan to 200 μM and incubated 15 min at 37° C. The reaction was stopped by addition of 0.5 vol of 30% trichloroacetic acid and incubated 30 min at 60° C. to hydrolyze N-formylkynurenine to kynurenine. The reaction was centrifuged at 3400 g for 5 min to remove precipitated protein and the supernatant was reacted with 2% (w/v) of p-dimethylaminobenzaldehyde in acetic acid. The reaction was incubated 10 min at 25° C. and read at 480 nm in a spectrophotometer.

The target in assay [2] is purified human TDO protein (Homo sapiens (Human), UniProt P48775). Nature of the assay: Enzymatic TDO assay. It counts as biochemical. The procedure:
as §1, with “Differently from the IDO activity assay, no methylene blue is added to the assay. The inhibitors” for “The inhibitors”, “raging from 300 μM to 5” for “raging from 1 mM to 5”, “a spectrophotometer. Control samples with no TDO inhibitor, or with no TDO enzyme were used as controls to set the parameters for the non-linear regressions necessary for determination of the IC50 for each compound. Nonlinear regressions and determination of the IC50 values were performed using the GraphPad Prism 4 software.” for “a spectrophotometer.”

For orientation: pIC50 means −log10 of the IC50, conventionally taken in molar units. Low values mean a large IC50, high ones a small IC50.

purified human IDO protein, sequence (P14902 whole entry P110S/E119G, the tested form may be a part): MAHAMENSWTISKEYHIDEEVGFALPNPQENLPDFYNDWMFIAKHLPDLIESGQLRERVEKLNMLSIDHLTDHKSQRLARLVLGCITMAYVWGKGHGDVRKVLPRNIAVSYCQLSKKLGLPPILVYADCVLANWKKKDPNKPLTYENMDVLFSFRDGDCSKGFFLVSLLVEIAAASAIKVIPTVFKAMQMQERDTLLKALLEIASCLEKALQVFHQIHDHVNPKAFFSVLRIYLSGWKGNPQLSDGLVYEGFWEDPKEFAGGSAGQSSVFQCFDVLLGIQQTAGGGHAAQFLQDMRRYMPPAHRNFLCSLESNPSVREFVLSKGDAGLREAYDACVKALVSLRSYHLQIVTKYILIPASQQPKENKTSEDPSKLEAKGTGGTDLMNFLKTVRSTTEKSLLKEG
purified human TDO protein, sequence (P48775 whole entry): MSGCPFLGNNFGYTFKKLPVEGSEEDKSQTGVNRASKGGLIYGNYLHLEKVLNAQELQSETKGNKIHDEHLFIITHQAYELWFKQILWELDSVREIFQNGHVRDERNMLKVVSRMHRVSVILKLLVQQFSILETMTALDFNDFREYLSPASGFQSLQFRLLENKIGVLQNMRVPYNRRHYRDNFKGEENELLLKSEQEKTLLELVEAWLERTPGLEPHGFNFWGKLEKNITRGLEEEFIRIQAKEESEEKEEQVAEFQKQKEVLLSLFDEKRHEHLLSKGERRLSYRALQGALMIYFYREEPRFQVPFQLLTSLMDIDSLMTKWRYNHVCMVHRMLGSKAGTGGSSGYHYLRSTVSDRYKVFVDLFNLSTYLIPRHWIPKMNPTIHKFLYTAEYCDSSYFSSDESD

As to `OC(CC1c2ccccc2-c2cnnn21)C1CCC(F)(F)CC1` (centres unmarked) [Compound 68, 2-(8H-[1,2,3]triazolo[5,1-a]isoindol-8-yl)-1-(4,4-difluorocyclohexyl)ethan-1-ol], the results for the pIC50 in assay [1] and in assay [2] were 4.00 to 5.00 and 5.00 to 6.00, respectively.

In the case of `c1ccc2c(c1)Cc1cn[nH]c1-2` [Compound 101], the pIC50 in assay [1] is less than 4.00; in assay [2], 5.00 to 6.00.

For the compound `O=C(CC1c2ccccc2-n2cncc21)C1CCCCC1` (centres unmarked) [Compound 27, 1-cyclohexyl-2-(9H-imidazo[1,5-a]indol-9-yl)ethan-1-one], the negative-log IC50 (pIC50) is 5.00 to 6.00 in assay [1] and more than 6.00 in assay [2].

On to `OC(CC1c2ccccc2-c2nncn21)C1CCCCC1` (centres unmarked) [Compound 69, 2-(5H-[1,2,4]triazolo[3,4-a]isoindol-5-yl)-1-cyclohexylethan-1-ol], for which the negative logarithm of the IC50 (pIC50) in assay [1] and in assay [2] was less than 4.00 in each case.

Regarding `OC(CC1c2ccccc2-c2cnnn21)C1CCCCC1` (centres unmarked) [Compound 66, 2-(8H-[1,2,3]triazolo[5,1-a]isoindol-8-yl)-1-cyclohexylethan-1-ol], the pIC50 in assay [1] and in assay [2] was 4.00 to 5.00 in each case.

With `O=C(CC1c2ccccc2-c2cnnn21)C1CCCCC1` (centres unmarked) [Compound 53, 2-(8H-[1,2,3]triazolo[5,1-a]isoindol-8-yl)-1-cyclohexylethan-1-one], the negative-log IC50 (pIC50) in assay [1] and in assay [2] was 4.00 to 5.00 each time.

Turning to `O=C(CC1c2ccccc2-c2cnnn21)C1CCC(F)(F)CC1` (centres unmarked) [Compound 54, 2-(8H-[1,2,3]triazolo[5,1-a]isoindol-8-yl)-1-(4,4-difluorocyclohexyl)ethan-1-one], the negative-log IC50 (pIC50) in assay [1] and in assay [2] was less than 4.00 throughout.

On to `O=C(CC1c2ccccc2-c2nncn21)C1CCCCC1` (centres unmarked) [Compound 43, 2-(5H-[1,2,4]triazolo[3,4-a]isoindol-5-yl)-1-cyclohexylethan-1-one], for which the negative logarithm of the IC50 (pIC50) in assay [1] and in assay [2] was less than 4.00 throughout.

In assay [2], `OC(CC1c2ccccc2-n2cncc21)C1CCCCC1` (centres unmarked) [Compound 70, 1-cyclohexyl-2-(9H-imidazo[1,5-a]indol-9-yl)ethan-1-ol] had a pIC50 of more than 6.00.
